# Test results as given in patent publication US7693320B2, “Three time point lung cancer detection, diagnosis and assessment of prognosis” (Yeda Research and Development Co. Ltd., priority 2004, dated 2010).
# How the values were obtained:
# [1] = set-up: species or system patients; details: human, in vivo, iv
# Excerpt: For example, in a CT application, HU units (Hounsfield Units) measuring signal intensity S(t) are converted to Ultravist 300 concentration units (ml ultravist 300 solution/liter saline). The relationship between the measured signal intensity S(t) in HU and the concentration C(t) of contrast material (in ml per l) is described by: S(t)=p+qC(t) (1) where p and q are parameters to be determined.
# Enhancement, E(t), is defined as the difference in signal intensities before and after contrast material injection: E(t)=S(t)−S(t0)=q[C(t)−C(t0)] (2)
# The experimental factor that converts HU units to contrast material concentration units can be determined by preparing tubes with different concentrations of Ultravist 300 in normal saline. The tubes can then be scanned by the CT.
# For example, for prepared concentrations, C (in ml Ultravist 300 per 1 saline), may be in the range of 0 to 2% (20 ml per l) which is approximately the concentration in the blood after the injection. […] (The dose of 1.5 ml/kg in a 70 kg patient corresponds to ˜20 ml/l, about 2% in blood.)
# The contrast agent for the CT was Iopromide (Ultravist 300; Schering) at a dose of 1.5 ml/kg, delivered through the antecubital vein at a rate of 3 ml/sec using an automatic injector (EnVision CT™). The patients were instructed to hold their breath following maximal expiration during the scanning, to decrease movement.
# For each patient, the inventors recorded the signal intensity, S, of a central ROI in the aorta before contrast administration and at a selected time point after contrast injection. The inventors in the research study used the relation between HU and concentration units of Ultravist 300 (see above) to convert the measured enhancement to the corresponding concentration in the aorta, Cp(t), assuming similar pharmacokinetics for all patients with normal kidney function. Cp(t) in ml contrast agent per liter blood was fitted to the equation: Cp(t)=D(a1e^−m1^t+a2e^−m2^t) D=dose in ml/kg […] Eq. 3. to obtain: a1=8.48 kg/l, a2=7.34 kg/l, m1=1.43 min^−1, m2=0.1 min^−1.
# FIG. 2 illustrates enhancement (as defined in Eq. 2) in the aorta as a function of time after Iopromide (ultravist 300) injection at a dose of 0.15 ml/kg. The decay in the enhancement followed eq. 3 using the concentration to enhancement conversion (equation 2).
# [2] = cited from earlier work
compound,measurement,setting,value
COCC(=O)Nc1c(I)c(C(=O)NCC(O)CO)c(I)c(C(=O)N(C)CC(O)CO)c1I (stereo not shown) [Iopromide],a1 (amplitude of Cp(t)=D(a1e^-m1t+a2e^-m2t)),[1],8.48 kg/L
same,a2 (amplitude of Cp(t)=D(a1e^-m1t+a2e^-m2t)),[1],7.34 kg/L
same,m1 (decay rate constant of Cp(t)),[1],1.43 min⁻¹
same,m2 (decay rate constant of Cp(t)),[1],0.1 min⁻¹
same,fraction of the dosage excreted in feces,[2]; following IV administration,1.5%
same,half-life of distribution in the extracellular space,[2]; following IV administration,3 min
same,elimination half-life,"[2]; patients of normal kidney function, irrespective of the dose",~2 h
